Measured values taken from PMC165585 (BMC Structural Biology, 2003).

What was measured:
[1] = molecular target: T1, LysU (heat-inducible Escherichia coli lysyl-tRNA synthetase) (Escherichia coli, UniProt P0A8N5); assay: isothermal titration calorimetry; type: binding
T1 sequence (P0A8N5 2-505): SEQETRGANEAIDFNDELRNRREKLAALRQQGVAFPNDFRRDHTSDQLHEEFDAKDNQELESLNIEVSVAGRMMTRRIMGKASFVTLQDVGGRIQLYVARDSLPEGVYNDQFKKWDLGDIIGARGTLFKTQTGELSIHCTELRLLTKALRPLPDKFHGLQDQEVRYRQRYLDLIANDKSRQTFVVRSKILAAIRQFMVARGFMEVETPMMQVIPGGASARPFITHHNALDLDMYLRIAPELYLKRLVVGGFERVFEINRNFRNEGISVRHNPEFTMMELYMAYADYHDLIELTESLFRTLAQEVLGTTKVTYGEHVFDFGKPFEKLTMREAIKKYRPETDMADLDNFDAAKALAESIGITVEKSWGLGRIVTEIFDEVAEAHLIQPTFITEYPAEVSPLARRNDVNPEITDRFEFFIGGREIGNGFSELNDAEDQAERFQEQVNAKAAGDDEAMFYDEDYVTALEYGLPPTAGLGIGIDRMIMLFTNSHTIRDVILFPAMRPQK

[2] = molecular target: T1, LysU (heat-inducible Escherichia coli lysyl-tRNA synthetase); assay: biochemical

Row | SMILES | Kd [1] | Kd [2]
1 | Nc1ncnc2c1ncn2[C@@H]1O[C@H](COP(=O)(O)OP(=O)(O)CP(=O)(O)O)[C@@H](O)[C@H]1O [AMPPCP, β,γ-methyleneadenosine 5'-triphosphate] | 1220 ± 150 nM | 
2 | NCCCC[C@H](N)C(=O)O [lysine] |  | 7.96 ± 1.4 µM
